Test results published in ChEMBL document CHEMBL4265964, “Discover the leading compound of 4β-S-(5-fluorobenzoxazole)-4-deoxy-4'-demethylepipodophyllotoxin with millimolar-potency toxicity by modifying the molecule structure of 4'-demethylepipodophyllotoxin” (Eur J Med Chem, 2018).
Active and inactive are the calls of the source. No cut-off for these calls is given here.

Experiments:
[1] = species on record: Homo sapiens; assay: Inhibition of human topoisomerase-2 assessed as reduction in relaxation of kinetoplast DNA at 50 uM after 30 mins by ethidium bromide staining based agarose gel electrophoresis method
[2] = species on record: Homo sapiens; assay: Inhibition of human topoisomerase-2 assessed as reduction in relaxation of kinetoplast DNA at 100 uM after 30 mins by ethidium bromide staining based agarose gel electrophoresis method
[3] = species on record: Homo sapiens; assay: Inhibition of human topoisomerase-2 assessed as reduction in relaxation of kinetoplast DNA at 200 uM after 30 mins by ethidium bromide staining based agarose gel electrophoresis method
[4] = tested on: HepG2; assay: Cytotoxicity against human HepG2 cells after 48 hrs by MTT assay; type: functional, cell-based; details: HepG2, 48 h
[5] = tested on: L02; assay: Cytotoxicity against human HL7702 cells after 48 hrs by MTT assay; type: cell-based; details: L02, 48 h
[6] = tested on: HeLa; assay: Cytotoxicity against human HeLa cells after 48 hrs by MTT assay; type: functional, cell-based
[7] = Cytotoxicity against human H8 cells after 48 hrs by MTT assay; type: cell-based
[8] = tested on: A549; assay: Cytotoxicity against human A549 cells after 48 hrs by MTT assay; type: functional, cell-based; details: A549, 48 h
[9] = tested on: MRC5; assay: Cytotoxicity against human MRC5 cells after 48 hrs by MTT assay; type: cell-based; details: MRC5, 48 h
[10] = tested on: MCF7; assay: Cytotoxicity against human MCF7 cells after 48 hrs by MTT assay; type: functional, cell-based; details: MCF7, 48 h
[11] = tested on: HMEC; assay: Cytotoxicity against HMEC after 48 hrs by MTT assay; type: cell-based; details: Homo sapiens
[12] = tested on: HepG2; assay: Cell cycle arrest in human HepG2 cells assessed as accumulation at G2/M phase at 1 uM after 42 hrs by propidium iodide staining based flow cytometry relative to control; type: functional
[13] = tested on: HepG2; assay: Cell cycle arrest in human HepG2 cells assessed as accumulation at G2/M phase at 5 to 10 uM after 42 hrs by propidium iodide staining based flow cytometry; type: functional
[14] = tested on: L02; assay: Cell cycle arrest in human HL7702 cells assessed as accumulation at G2/M phase at 5 to 10 uM after 42 hrs by propidium iodide staining based flow cytometry relative to control; details: l02, 42 h
[15] = tested on: HepG2; assay: Induction of apoptosis in human HepG2 cells assessed as necrotic cells at 10 uM after 42 hrs by Annexin V-FITC/propidium iodide staining based flow cytometry (reference value: 0.3%); type: functional
[16] = tested on: HepG2; assay: Induction of apoptosis in human HepG2 cells assessed as late apoptotic cells at 10 uM after 42 hrs by Annexin V-FITC/propidium iodide staining based flow cytometry (reference value: 0.9%); type: functional
[17] = tested on: HepG2; assay: Induction of apoptosis in human HepG2 cells assessed as early apoptotic cells at 10 uM after 42 hrs by Annexin V-FITC/propidium iodide staining based flow cytometry (reference value: 0.5%); type: functional
[18] = tested on: HepG2; assay: Induction of apoptosis in human HepG2 cells assessed as live cells at 10 uM after 42 hrs by Annexin V-FITC/propidium iodide staining based flow cytometry (reference value: 98.2%); type: functional
[19] = Induction of apoptosis in human HL7702 cells assessed as live cells at 100 uM after 42 hrs by Annexin V-FITC/propidium iodide staining based flow cytometry (reference value: 98.5%); type: cell-based; details: HL7702 (L02) cells, read-out: Activity
[20] = tested on: L02; assay: Induction of apoptosis in human HL7702 cells assessed as early apoptotic cells at 100 uM after 42 hrs by Annexin V-FITC/propidium iodide staining based flow cytometry (reference value: 0.3%); type: cell-based; details: l02, 42 h
[21] = tested on: L02; assay: Induction of apoptosis in human HL7702 cells assessed as late apoptotic cells at 100 uM after 42 hrs by Annexin V-FITC/propidium iodide staining based flow cytometry (reference value: 1%); type: cell-based; details: l02, 42 h
[22] = tested on: L02; assay: Induction of apoptosis in human HL7702 cells assessed as necrotic cells at 100 uM after 42 hrs by Annexin V-FITC/propidium iodide staining based flow cytometry (reference value: 0.2%); type: cell-based; details: l02, 42 h
[23] = tested on: L02; assay: Induction of DNA damage in human HL7702 cells assessed as gammaH2AX accumulation at 50 uM after 12 hrs by DAPI staining based immuno-fluorescence assay; type: cell-based; details: l02, 12 h
[24] = tested on: L02; assay: Upregulation of HMGB1 expression in human HL7702 cells at 50 uM after 12 hrs by proteomic analysis; type: functional, cell-based
[25] = tested on: L02; assay: Upregulation of PARK7 expression in human HL7702 cells at 50 uM after 12 hrs by proteomic analysis; type: functional, cell-based
[26] = tested on: L02; assay: Upregulation of SRSF3 expression in human HL7702 cells at 50 uM after 12 hrs by proteomic analysis relative to control; type: functional, cell-based
[27] = tested on: L02; assay: Upregulation of COX5A expression in human HL7702 cells at 50 uM after 12 hrs by proteomic analysis relative to control; type: functional, cell-based
[28] = tested on: L02; assay: Upregulation of Akt expression in human HL7702 cells at 50 uM after 12 hrs by proteomic analysis relative to control; type: functional, cell-based

Q: What does the source list for `COc1cc([C@@H]2c3cc4c(cc3[C@@H](O[C@@H]3O[C@@H]5CO[C@@H](C)O[C@H]5[C@H](O)[C@H]3O)[C@H]3COC(=O)[C@H]23)OCO4)cc(OC)c1O` [ETOPOSIDE]?
A: inhibition [1]: inactive; inhibition [2]: Active; inhibition [3]: Active; IC50 [4]: 20 µM; IC50 [5]: 24.6 µM; IC50 [6]: 21.4 µM; IC50 [7]: 75.4 µM; IC50 [8]: 22.5 µM; IC50 [9]: 33.5 µM; IC50 [10]: 53.8 µM; IC50 [11]: 21.5 µM; Activity [12]: 33%; Activity [13]: Active; Activity [14]: 64%; Activity [15]: 5.4%; Activity [16]: 11%; Activity [17]: 7%; Activity [18]: 76.6%; viability at 42 h, 100 µM [19]: 28%; Activity [20]: 37%; Activity [21]: 32.8%; Activity [22]: 2.2%; Activity [23]: Toxic; Activity [24]: inactive; Activity [25]: inactive; Activity [26]: inactive; Activity [27]: inactive; Activity [28]: inactive
